Test results published in article PMC4200786, “Synthesis and Characterization of New Bivalent Agents as Melatonin- and Histamine H3-Ligands” (International Journal of Molecular Sciences, 2014).

Key:
[1] = target: T1, human MT2 receptor (Homo sapiens, UniProt P49286); experiment: Human MT2 melatonin receptor binding assay, 2-[125I]iodomelatonin competition; conditions: cloned human MT2 in NIH3T3 cell membranes; 2-[125I]iodomelatonin 100 pM; N.A. = Not active up to 100 μM
T1 construct: expressed in transfected cells; host or cells: NIH3T3 fibroblast cells
T1 sequence (P49286 1-362): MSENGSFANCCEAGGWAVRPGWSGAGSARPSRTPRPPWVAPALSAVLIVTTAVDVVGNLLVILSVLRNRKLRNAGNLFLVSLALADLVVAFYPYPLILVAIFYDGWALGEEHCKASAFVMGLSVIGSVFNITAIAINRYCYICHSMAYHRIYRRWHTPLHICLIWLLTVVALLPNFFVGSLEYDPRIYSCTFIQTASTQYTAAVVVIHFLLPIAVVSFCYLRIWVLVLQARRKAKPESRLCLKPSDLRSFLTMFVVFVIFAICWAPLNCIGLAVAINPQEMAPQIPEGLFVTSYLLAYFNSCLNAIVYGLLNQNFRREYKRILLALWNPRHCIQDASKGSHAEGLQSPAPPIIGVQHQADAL
Procedure: (§1) Binding affinities were determined using 2-[^125I]iodomelatonin as the labeled ligand in competition experiments with cloned human MT1 and MT2 receptors expressed in NIH3T3 […] fibroblast cells. The characterization of NIH3T3 MT1 and MT2 cells was already described in detail. Membranes were incubated for 90 min at 37 °C in binding buffer (50 mM Tris/HCl, pH 7.4). The final membrane concentration was 5–10 μg of protein per tube. The membrane protein level was determined in accordance with a previously reported method. 2-[^125I]Iodomelatonin (100 pM) and different concentrations of the tested compounds were incubated with the receptor preparation for 90 min at 37 °C. […] The pKi values were calculated from the IC50 values according to the Cheng–Prusoff equation [51]. The pKi values are the mean of at least three independent determinations performed in duplicate.

[2] = target: T2, human histamine H3 receptor (Homo sapiens, UniProt Q9Y5N1); experiment: Human histamine H3 receptor binding assay, [3H](R)-α-methylhistamine displacement; conditions: SK-N-MC cell homogenates expressing hH3R; 0.5 nM [3H](R)-α-methylhistamine; mean ± SEM of three experiments
T2 construct: expressed in transfected cells; host or cells: SK-N-MC cells
T2 sequence (Q9Y5N1 whole entry): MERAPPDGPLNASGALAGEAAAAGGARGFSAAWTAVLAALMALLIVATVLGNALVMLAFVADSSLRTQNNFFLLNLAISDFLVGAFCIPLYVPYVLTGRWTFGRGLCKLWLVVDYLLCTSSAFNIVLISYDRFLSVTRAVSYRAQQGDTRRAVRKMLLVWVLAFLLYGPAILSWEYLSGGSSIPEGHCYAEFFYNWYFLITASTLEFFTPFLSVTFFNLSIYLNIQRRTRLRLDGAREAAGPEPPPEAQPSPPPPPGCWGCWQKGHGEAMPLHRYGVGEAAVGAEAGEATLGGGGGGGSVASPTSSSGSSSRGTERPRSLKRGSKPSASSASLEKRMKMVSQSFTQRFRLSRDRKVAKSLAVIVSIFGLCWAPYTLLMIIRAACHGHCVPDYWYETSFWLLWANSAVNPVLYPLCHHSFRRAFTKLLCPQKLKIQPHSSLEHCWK
Procedure: Homogenates of SK–N–MC cells expressing human histamine H3 receptors (hH3Rs) were used to determine affinity values of the new compounds in radioligand displacement studies according to Lovenberg et al.’s method. SK–N–MC cells in confluent culture plates were harvested using trypsin digestion and then centrifuged for 5 min at 1100 rpm. Pellets, either fresh or stored at −80 °C until the moment of use, were mechanically homogenized with Potter-Elvhejem in 20 mM Tris-HCl/0.5 mM EDTA. Supernatants from a 2000 rpm spin (10 min) were collected and re-centrifuged at 10,000 rpm for 30 min. Pellets were re-homogenized in 50 mM Tris-HCl/5 mM EDTA (pH 7.4). Membranes were incubated for 60 min at room temperature with 0.5 nM [^3H](R)-α-methylhistamine in 50 mM Tris-HCl/5 mM EDTA (pH 7.4) with or without competing ligands. Each concentration was tested in triplicate. Incubation was terminated by rapid filtration over Millipore (Darmstadt, Germany) AAWPO2500 filters followed by two washes with ice-cold buffer (50 mM Tris-HCl/5 mM EDTA). Filters retained radioactivity was determined by liquid scintillation counting (Ultima Gold XR Perkin Elmer (Waltham, MA, USA) scintillation liquid, Tri-Carb 2810 TR Perkin Elmer (Waltham, MA, USA) Liquid Scintillation Analyzer). […] Data are expressed as mean ± SEM of three independent experiments.

[3] = target: T3, human MT1 receptor (Homo sapiens, UniProt P48039); experiment: Human MT1 melatonin receptor binding assay, 2-[125I]iodomelatonin competition; conditions: cloned human MT1 in NIH3T3 cell membranes; 2-[125I]iodomelatonin 100 pM; N.A. = Not active up to 100 μM
T3 construct: expressed in transfected cells; host or cells: NIH3T3 fibroblast cells
T3 sequence (P48039 whole entry): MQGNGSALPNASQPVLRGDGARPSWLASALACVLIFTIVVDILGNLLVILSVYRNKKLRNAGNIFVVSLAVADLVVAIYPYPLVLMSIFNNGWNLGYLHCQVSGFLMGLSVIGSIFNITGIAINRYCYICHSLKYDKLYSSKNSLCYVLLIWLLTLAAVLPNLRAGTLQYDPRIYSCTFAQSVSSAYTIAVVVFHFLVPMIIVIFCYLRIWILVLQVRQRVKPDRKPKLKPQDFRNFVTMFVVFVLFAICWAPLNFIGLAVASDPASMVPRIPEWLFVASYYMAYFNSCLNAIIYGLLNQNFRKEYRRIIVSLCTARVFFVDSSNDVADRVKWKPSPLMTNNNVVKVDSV
Procedure: as §1

[4] = target: T3, human MT1 receptor; experiment: [35S]GTPγS binding assay, human MT1 receptor; format: biochemical
Procedure: (§2) To determine the functional activity of compound 14d at MT1 and MT2 receptor subtypes, [^35S]GTPγS binding assays in NIH3T3 cells expressing human-cloned MT1 or MT2 receptors were performed. The amount of bound [^35S]GTPγS is proportional to the level of the analog-induced G protein activation and is related to the intrinsic activity of the compound under study. The detailed description and validation of this method were reported elsewhere. Membranes (15–25 μg of protein, final incubation volume 100 μL) were incubated at 30 °C for 30 min in the presence and absence 14d, in assay buffer consisting of [^35S]GTPγS (0.3–0.5 nM), GDP (50 μM), NaCl (100 mM), and MgCl2 (3 mM). Nonspecific binding was defined using GTPγS (10 μM). […] Basal stimulation is the amount of [^35S]GTPγS specifically bound in the absence of compounds and was taken as 100%. […] All of the measurements were performed in triplicate.

[5] = target: T1, human MT2 receptor; experiment: [35S]GTPγS binding assay, human MT2 receptor; format: biochemical
Procedure: as §2

Substance | hMT2 pKi [1] | hH3 pKi [2] | hMT1 pKi [3] | functional behaviour at MT1 receptor in the GTPγS assay ([4]; GTPγS assay) | hMT1 IAR (relative intrinsic activity) ([4]; [35S]GTPγS binding, NIH3T3 cells expressing human MT1, relative to melatonin) | functional behaviour at MT2 receptor in the GTPγS assay ([5]; GTPγS assay) | hMT2 IAR (relative intrinsic activity) ([5]; [35S]GTPγS binding, NIH3T3 cells expressing human MT2, relative to melatonin)
N-[2-({3-[5-(1H-Imidazol-4-yl)pentyloxy]phenyl}methylamino)ethyl]acetamide [Compound 14c] | 6.28 ± 0.10 | 6.28 ± 0.03 | 6.09 ± 0.12 |  |  |  | 
N-[2-({3-[3-(1H-Imidazol-4-yl)propoxy]phenyl}methylamino)ethyl]acetamide [Compound 14a] |  | 5.91 ± 0.01 |  |  |  |  | 
N-[2-({3-[6-(1H-Imidazol-4-yl)hexyloxy]phenyl}methylamino)ethyl]acetamide [Compound 14d] | 6.76 ± 0.06 | 6.22 ± 0.09 | 6.79 ± 0.01 | antagonist | −0.26 ± 0.09 | antagonist | −0.35 ± 0.19
